Reference: publication PMC11329928, “Design, synthesis and structure-activity relationship (SAR) studies of an unusual class of non-cationic fatty amine-tripeptide conjugates as novel synthetic antimicrobial agents” (Frontiers in Pharmacology, 2024)

Experiments:
[1] = RP-HPLC retention time used to determine hydrophobicity; format: physicochemical; conditions: analytical RP-HPLC, C18 Sunfire column (4.6 mm × 150 mm, 3.5 μm); A = 0.05% TFA in water, B = acetonitrile; 10% to 100% B in 20 min then isocratic 100% B 10 min; 217 and 254 nm; used as measure of hydrophobicity
Experimental: The purity of the lipopeptides was checked by analytical RP-HPLC on an Agilent Infinity instrument equipped with a Diode Array and a C18 Sunfire column (4.6 mm × 150 mm, 3.5 μm). As mobile phase A:B mixtures were used, where A = 0.05% TFA in water and B = acetonitrile. The samples were analyzed at 217 and 254 nm in a gradient from 10% of B to 100% of B in 20 min followed by isocratic 100% of B in 10 min.
Retention times were used to determine the hydrophobicity ([Neubauer et al., 2020]). HRMS (EI+) was carried out in an Agilent 6,520 Accurate-Mass Q-TOF LC/MS spectrometer using water/acetonitrile mixtures. Results can be found in Supplementary Section S3, S4.

[2] = test system: Streptococcus pneumoniae R6; assay: Growth inhibition / lysis screening of planktonic cultures (OD550/600); format: cell-based; set-up: key: (+++) full inhibition; (++) partial inhibition; (+) growth retardation; -: (−) no effect; conditions: S. pneumoniae R6, 50 and 100 μM compound added at early logarithmic phase (T1), OD550/600 followed 10 h, 37°C
Experimental: (§1) Planktonic cultures of selected pathogens (S. pneumoniae R6, S. pyogenes ^T, Staphylococcus aureus ^T, Escherichia coli DH10B, and Pseudomonas aeruginosa PAO1 strains) on early logarithmic-phase (T1) were assayed for their sensitivity to a broad range of DICAM compounds, as indicated in Table 1. Their bacteriostatic or lytic effect was first tested by measuring the variation of the OD550/600 as a function of time (10 h) when (50/100 μM) DICAMs were added, compared to untreated controls. The screening results, summarized in Table 1, evidenced that a potent antimicrobial activity may exist even when the negative charge of the peptide was higher than in the prototype compounds.
(§2) Susceptibility to DICAMs was first tested by growth-inhibition assays at 50 and 100 μM of compound. Briefly, working solutions at 5 mM or 10 mM DICAM in pure DMSO were prepared from DICAM stocks (40 mM in pure DMSO) and diluted with fresh culture medium to 5× the desired final concentration. Aliquots (50 µL) of these solutions were added to 200 µL of bacterium cultures grown to early exponential phase (OD550/600 c. a. 0.15–0.2 in sterile 96-well plates (Cultek, Spain). Incubation continued for 10 h at 37°C and turbidity (OD550/600) values were measured every 20 min to monitor growth and lysis, using a VersaMax microplate reader (Molecular Devices; United Kingdom). Next, the activity dependence on DICAM’s dose was examined by measuring the turbidity of treated and untreated cultures as a function of time. Also, the decay of bacterial viability (CFU/mL) at selected times of treatment was assessed by colony counting on LB-agar or TSA plates after overnight incubation at 37°C. By default, 10 μL of 10-fold serially diluted samples were plated, which set the lower detection limit at 10^2 CFU/mL (10^1 CFU/mL when 100 μL of the undiluted sample was seeded).

S. pneumoniae D39 = format: cell-based, Streptococcus pneumoniae
Description: First, the substitution of the fatty amino chain of 18 carbon atoms of the reference compound DICAM 2 by either an OMe group (methylated tripeptide DICAM 5) or an amine with 12 carbon atoms (DICAM 9) abolished the activity against all three pathogens. However, the activity remained intact when the chain of the fatty amine of prototypes DICAMs 1 and 4 was two carbon atoms shorter (DICAM 10 and DICAM 12, respectively), based on S. pneumoniae and S. pyogenes results. […] Third, Glu and Ala were tolerated as C-terminal residues of the lipotripeptides. […] In addition, deletion of the C-terminal Glu (DICAM 13) eradicated the activity against S. pneumoniae and S. aureus. However, a delay and small inhibition of S. pyogenes ^T growth was still observed. Fourth, Glu (DICAMs 19 and 20) and Orn (DICAMs 21 and 22) were tolerated as N-terminal residues, with the impact of these modifications being pathogen-dependent. […] SAR studies continued by measuring the dose dependence of DICAM’s activity at T1 with all the compounds found to be active against S. pyogenes or S. aureus in the initial screening, and all but one compound in the case of S. pneumoniae. The OD values of bacterial cultures were monitored after DICAM addition, and the decrease in the number of viable bacteria was measured relative to controls (Figures 4–6; Supplementary Figure S1). As antibacterial efficacy may decline with the bacterium dose in the inoculum ([Belley et al., 2009]; [Udekwu et al., 2009]; [Luca et al., 2013]), the assays were performed using the bacterial concentrations necessary for the fluorescence experiments in Section 2.3 (10^7–10^8 CFU/mL). At these high bacterial densities, MICs were determined as the DICAM concentration at which bacteria neither grow nor are killed (the stationary concentration (SC)), following [Udekwu et al., 2009]. By fitting the logarithmic plot of cell viability decrease vs. the DICAM dose to a Hill function (see Section 5.2.3.1) we were able to determine the maximum variation in viability (Δlogmax = ∆log f - ∆log 0, where ∆log f and ∆log 0 are the upper and lower limits of Δlog) in the assay conditions, the SC concentration (Δlog = 0), the dose required for half-variation in Δlogmax (K 1/2), and the cooperativity of the antimicrobial effect (N H).
as §2
As antibacterial efficacy may decline with the bacterium dose in the inoculum ([Belley et al., 2009]; [Udekwu et al., 2009]; [Luca et al., 2013]), activity assays were performed using the bacterial concentrations required for the fluorescence experiments in Section 2.3 (10^7–10^8 CFU/mL). At such bacterial densities, MICs were determined as the DICAM concentration at which bacteria neither grow nor are killed under assay conditions (the stationary concentration (SC)), as indicated in Section 2.2. […]

[3] = test system: Pseudomonas aeruginosa PAO1; assay: Resting-cell viability (CFU) with 0.5 mM EDTA; format: cell-based; conditions: P. aeruginosa PAO1, 100 µM compound, 3 h incubation
Experimental: (§3) Addition of tested compounds to the culture medium had little or no effect on bacterial growth, even at a concentration of 100 μM (Table 1). Since inactivity could arise from the inability of DICAMs to cross the outer membrane, we next tested their effect on bacterial suspensions in the absence or the presence of 0.5 mM EDTA, an outer membrane permeating agent. A decrease of approximately 90% in bacterial viability was observed after 3 h treatment with DICAM 2 and DICAM 4, compared to controls in EDTA-containing buffer (Supplementary Figure S5). No variations were found with the other compounds tested (Table 1), showing that only DICAMs containing Ala/Asn- Pro -Glu tripeptides were able to access the cell membrane and kill these pathogens when the outer membrane permeability was enhanced.
(§4) For activity assays on resting cells, bacteria grown to exponential phase (OD600 ≈ 0.3) were centrifuged and washed with 20 mM Tris-HCl (pH 7.5), adjusting the final OD600 to ≈0.6 (≈10^8 CFU/mL) with the same buffer. If required, EDTA (0.5 mM final concentration) was next added and the bacterial suspension was dispensed (225 µL per well) in 96-well plates, and then treated with 100 µM DICAM (25 µL). Samples were incubated at 37°C for 3 h and turbidity measurements were taken at selected intervals, also measuring the decay in cell viability at the end of incubation. Controls with buffer (with and without 1% DMSO), 100 µM DICAM, or 0.5 mM EDTA were run in parallel.

Streptococcus pyogenes T = assay: Growth inhibition screening of planktonic cultures (OD550/600); format: cell-based; set-up: key: (+++) full inhibition; (++) partial inhibition; (+) growth retardation; -: (−) no effect; conditions: S. pyogenes T, 50 and 100 μM compound added at T1, OD550/600 followed 10 h, 37°C
Experimental: as §1, §2

Staphylococcus aureus T = assay: as above; format: cell-based; set-up: key: (+++) full inhibition; (++) partial inhibition; (+) growth retardation; -: (−) no effect; conditions: S. aureus T, 50 and 100 μM compound added at T1, OD550/600 followed 10 h, 37°C
Experimental: as §1, §2

[4] = test system: Pseudomonas aeruginosa PAO1; assay: as above; format: cell-based; set-up: key: (+++) full inhibition; (++) partial inhibition; (+) growth retardation; -: (−) no effect; conditions: P. aeruginosa PAO1, 50 and 100 μM compound added at T1, OD550/600 followed 10 h, 37°C
Experimental: as §1, §2

Escherichia coli DH10B [5] = assay: as above; format: cell-based; set-up: key: (+++) full inhibition; (++) partial inhibition; (+) growth retardation; -: (−) no effect; conditions: E. coli DH10B, 50 and 100 μM compound added at T1, OD550/600 followed 10 h, 37°C
Experimental: as §1, §2

Escherichia coli DH10B [6] = assay: Resting-cell viability (CFU) with 0.5 mM EDTA; format: cell-based; conditions: E. coli DH10B, 100 µM compound, 3 h incubation
Experimental: as §3, §4

[7] = Calcein release from LUVs; conditions: 10 μM DICAM, 25°C, vesicle buffer pH 7.4, calcein release
Experimental: LUVs were prepared for calceine liberation assays as described ([Chongsiriwatana and Barron, 2009]). Lipid composition (mole %) of LUVs was: POPG (100), POPG:CL (80:20), POPG:CL:DOPE ([…]), and POPG:CL:GlcDAG (75:5:20). Briefly, the nitrogen-dried lipid mixture was dissolved at 1.25 mM with 100 mM calceine in vesicle buffer (10 mM Tris, 140 mM NaCl, 0.5 mM EDTA, pH 7.4) followed by five thaw-freeze cycles. Calceine-entrapped LUVs were prepared by extrusion through 100 nm polycarbonate membranes (Avanti Polar Lipids). Non-entrapped calceine was separated from LUVs by gel filtration on a Sephacryl® S200-HR column (Sigma). LUVs permeabilization was monitored at 25°C by fluorescence emission at 550 nm (λex = 480 nm) as a function of time in a Fluoromax-4 spectrofluorometer (Horiba, France) using agitation. Signal stabilization of samples (1,500 µL vesicle buffer plus 45 µL LUVs) was recorded for 5 min before 10 µM final DICAM addition, and calcein release was monitored for a maximum of 20 min. After incubation, samples were solubilized in Triton X-100 (0.025%) and the fluorescence signal recorded thereafter was used to normalize the entire data set. Solubilization of DICAM-untreated LUVs in Triton X-100 was used as a positive control. No perturbation was detected in controls containing DMSO.

Substance	Retention time [1] [min]	Growth halt or lysis (50/100 μM), Spn [2]	Reduction of the number of viable cells at saturating doses (S. pneumoniae D39; S. pneumoniae D39, within 60 min) [log-units]	Reduction of the number of viable cells at 3 × SC, S. pneumoniae (S. pneumoniae D39; after 1-h incubation at 3 × SC values)	CFU's decay in the presence of 0.5 mM EDTA, Pa (data in parenthesis) [3]	Growth halt or lysis (50/100 μM), Spy T (Streptococcus pyogenes T)	Growth halt or lysis (50/100 μM), Sa T (Staphylococcus aureus T)	Growth halt or lysis (50/100 μM), Pa [4]	Growth halt or lysis (50/100 μM), Ec (Escherichia coli DH10B [5])	CFU's decay in the presence of 0.5 mM EDTA, Ec (data in parenthesis) (Escherichia coli DH10B [6])	Permeation of DOPE:POPG:CL (80:15:5) LUVs, result in words [7]
Ala- Pro -Glu-NH-C12H25 · HCl [DICAM 11]	15.29	-									
Ala- Pro -Glu-NH-C16H33 · HCl [DICAM 12]	17.57	+++	≥ 4.6	99.2%–99.8							
Ala- Pro -Trp-NH-C18H37 · HCl [DICAM 16]	21.04	-			(−) ((−) ≤ 0.3 log-units)	-	-	-	-	(−) ((−) ≤ 0.3 log-units)	
Asn- Ala -Glu-NH-C18H37 · HCl [DICAM 17]	18.63	-			(−) ((−) ≤ 0.3 log-units)	-	-	-	-	(−) ((−) ≤ 0.3 log-units)	
Asn- Pro -Glu-OMe · HCl [DICAM 5]	5.15	-									
Asn- Pro -Phe-NH-C18H37 · HCl [DICAM 7]	22.21	-				-					particularly effective
Cbz-Ala- Pro -Trp-NH-C18H37 [DICAM 15]	23.18	-			(−) ((−) ≤ 0.3 log-units)			-	-	(−) ((−) ≤ 0.3 log-units)	
Cbz-Asn- Pro -Glu(O^tBu)-NH-C18H37 [DICAM 8]		-									
Cbz-Asn- Pro -Glu-NH-C12H25 [DICAM 9]	15.80	-									
Pro -Glu-NH-C18H37 · HCl [DICAM 18]	19.54	-						-	-		
